Assay results published in paper PMC2229834 (Molecular Microbiology, 2007).

Tests used:
[1] = molecular target: T1, human PTPS (HsPTPS) (Homo sapiens, UniProt Q03393); test: HPLC with fluorescence of iodine-oxidised pterin products; type: biochemical; settings: 9 uM DHNTP, 10 mM MgCl2, 2 mM DTT, pH 8.0, 37 C, 1 h
T1 sequence (Q03393 1-145): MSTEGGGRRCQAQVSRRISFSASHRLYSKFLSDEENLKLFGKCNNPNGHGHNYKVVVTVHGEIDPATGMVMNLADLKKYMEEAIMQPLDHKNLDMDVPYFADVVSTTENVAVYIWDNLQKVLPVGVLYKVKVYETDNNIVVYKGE

[2] = molecular target: T2, E. coli PTPS (EcPTPS) (Escherichia coli, UniProt P65870); test: as above; type: biochemical; settings: 9 uM DHNTP, 10 mM MgCl2, 2 mM DTT, pH 8.0, 37 C, 1 h
T2 sequence (P65870 1-121): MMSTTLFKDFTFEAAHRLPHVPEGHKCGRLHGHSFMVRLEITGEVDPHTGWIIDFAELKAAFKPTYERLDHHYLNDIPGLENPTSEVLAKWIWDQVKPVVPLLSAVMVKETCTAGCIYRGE

Nc1nc2c(c(=O)[nH]1)N=C([C@H](O)[C@H](O)COP(=O)(O)OP(=O)(O)OP(=O)(O)O)CN2 [DHNTP]
HPLC with fluorescence of iodine-oxidised pterin products [1]: Both the bacterial and human enzymes converted DHNTP to PTP as expected | HPLC with fluorescence of iodine-oxidised pterin products [2]: Both the bacterial and human enzymes converted DHNTP to PTP as expected
